Measurements from US4436751A, “Nitrobenzyl monates antibacterial compounds” (Beecham Group Limited, priority 1980, dated 1984).
≈ marks a conversion by molar mass, not a printed value. Where two headings read alike, the source gives them in different places.

Tests used:
Assay type in all cases: cell-based
M. suipneumoniae OCD 1 = experiment: Anti-mycoplasmal MIC in vitro, Friis broth agarose (Table 1); conditions: Mesomycoplasma hyopneumoniae, OCD1, 144 h
M. suipneumoniae NB12 = experiment: as above; conditions: Mesomycoplasma hyopneumoniae, NB12, 144 h
M. hyorhinis ATCC 25021 = experiment: as above; conditions: Mesomycoplasma hyorhinis, ATCC25021, 144 h
M. suipneumoniae Str. 11 = experiment: as above; conditions: Mesomycoplasma hyopneumoniae, STR.11, 144 h
[1] = tested on: M. suipneumoniae ATCC 25095; experiment: as above; conditions: Mesomycoplasma hyopneumoniae, ATCC25095, 144 h
[2] = tested on: Ps. aeruginosa NCTC 10662; experiment: Human bacteria MIC, nutrient agar with chocolated horse blood (Table 3); conditions: Pseudomonas aeruginosa
Protocol: (§1) The values were determined by serial dilutions in nutrient agar with 5% chocolated horse blood after incubations for 18 hours at 37° C.

Sarcina lutea 8340 = experiment: as above
Protocol: as §1

[3] = tested on: Strep. pyogenes R80/421-A; experiment: as above; conditions: Streptococcus pyogenes; Strep. pyogenes R80/421-A; nutrient agar 5% chocolated horse blood, 18 hours 37° C.; read-out: MIC
Protocol: as §1

E. coli ESS = experiment: as above; conditions: Escherichia coli
Protocol: as §1

E. Coli NCTC 10418 = experiment: as above; conditions: Escherichia coli
Protocol: as §1

[4] = tested on: Corynebacterium xerosis 9755; experiment: as above
Protocol: as §1

Staph. aureus Russell = experiment: as above; conditions: Staphylococcus aureus
Protocol: as §1

Strep. faecalis 1 = experiment: as above; conditions: Enterococcus faecalis; Strep. faecalis 1; nutrient agar 5% chocolated horse blood, 18 hours 37° C.; read-out: MIC
Protocol: as §1

Bacillus subtilis 6633 = experiment: as above
Protocol: as §1

Staph. aureus Oxford = experiment: as above; conditions: Staphylococcus aureus
Protocol: as §1

[5] = tested on: Haemophilus influenzae Q1; experiment: as above; conditions: Haemophilus influenzae Q1; nutrient agar 5% chocolated horse blood, 18 hours 37° C.; read-out: MIC
Protocol: as §1

[6] = tested on: Pasteurella multocida 1633; experiment: as above; conditions: Pasteurella multocida 1633; nutrient agar 5% chocolated horse blood, 18 hours 37° C.; read-out: MIC
Protocol: as §1

[7] = tested on: Neisseria catarrhalis 1502; experiment: as above
Protocol: as §1

Staph. aureus W2827 = experiment: as above; conditions: Staphylococcus aureus
Protocol: as §1

P. mirabilis 889 = experiment: as above
Protocol: as §1

K. aerogenes A = experiment: as above; conditions: Klebsiella aerogenes
Protocol: as §1

[8] = tested on: M. suipneumoniae PW/C/210; experiment: Anti-mycoplasmal MIC in vitro, Friis broth agarose (Table 1); conditions: Mesomycoplasma hyopneumoniae, 144 h
[9] = tested on: M. hyosynoviae ATOC 25591; experiment: as above; conditions: 144 h
M. suipneumoniae HR(2) = experiment: as above; conditions: Mesomycoplasma hyopneumoniae, 144 h
M. suipneumoniae MS 16 = experiment: as above; conditions: Mesomycoplasma hyopneumoniae, MS16, 144 h
Strep. pneumoniae CN33 = experiment: Human bacteria MIC, nutrient agar with chocolated horse blood (Table 3); conditions: Streptococcus pneumoniae; Strep. pneumoniae CN33; nutrient agar 5% chocolated horse blood, 18 hours 37° C.; read-out: MIC
Protocol: as §1

M. pneumoniae ATCC 15492 = experiment: Anti-mycoplasmal MIC in vitro, Friis broth agarose (Table 1); conditions: Mycoplasmoides pneumoniae, ATCC15492, 144 h
Strep. 2733-B = experiment: Human bacteria MIC, nutrient agar with chocolated horse blood (Table 3); conditions: Strep. 2733-B; nutrient agar 5% chocolated horse blood, 18 hours 37° C.; read-out: MIC
Protocol: as §1

[10] = NCTC10662, Ps. aeruginosa NCTC 10662, nutrient agar 5% chocolated horse blood, 18 hours 37° C., read-out: MIC
[11] = Micrococcus luteus, Sarcina lutea 8340, nutrient agar 5% chocolated horse blood, 18 hours 37° C., read-out: MIC
[12] = NCTC10418, E. coli NCTC 10418, nutrient agar 5% chocolated horse blood, 18 hours 37° C., read-out: MIC
[13] = Corynebacterium xerosis 9755, nutrient agar 5% chocolated horse blood, 18 hours 37° C., read-out: MIC
[14] = Staph. aureus Russell, nutrient agar 5% chocolated horse blood, 18 hours 37° C., read-out: MIC
[15] = Bacillus subtilis 6633, nutrient agar 5% chocolated horse blood, 18 hours 37° C., read-out: MIC
[16] = Staph. aureus Oxford, nutrient agar 5% chocolated horse blood, 18 hours 37° C., read-out: MIC
[17] = Neisseria catarrhalis 1502, nutrient agar 5% chocolated horse blood, 18 hours 37° C., read-out: MIC
[18] = Proteus mirabilis, P. mirabilis 889, nutrient agar 5% chocolated horse blood, 18 hours 37° C., read-out: MIC
[19] = K. aerogenes A, nutrient agar 5% chocolated horse blood, 18 hours 37° C., read-out: MIC

`C/C(=C\C(=O)OCc1cccc([N+](=O)[O-])c1)CC1OCC(C/C=C/C(C)C(C)O)C(O)C1O` (centres unmarked) [Example 5, m-nitrobenzyl monate C] was tested, and the MIC (M. suipneumoniae OCD 1) was 0.25 µg/mL (≈ 0.539 µM), the MIC (M. suipneumoniae NB12) was 0.25 µg/mL (≈ 0.539 µM) and the MIC (M. hyorhinis ATCC 25021) was 0.25 µg/mL (≈ 0.539 µM). For the same molecule, the MIC (M. suipneumoniae Str. 11) was 0.1 µg/mL (≈ 0.216 µM), the MIC [1] was 0.25 µg/mL (≈ 0.539 µM) and the MIC [2, 10] was > 100 µg/mL. For the same molecule, the MIC (Sarcina lutea 8340; [11]) was > 100 µg/mL, the MIC [3] was 1 µg/mL (≈ 2.16 µM) and the MIC (E. coli ESS; E. coli ESS, nutrient agar 5% chocolated horse blood, 18 hours 37° C., read-out: MIC) was 10 µg/mL (≈ 21.6 µM). The MIC (E. Coli NCTC 10418; [12]) was > 100 µg/mL, the MIC [4, 13] was > 100 µg/mL and the MIC (Staph. aureus Russell; [14]) was 2.5 µg/mL (≈ 5.39 µM). The MIC (Strep. faecalis 1) was > 100 µg/mL, the MIC (Bacillus subtilis 6633; [15]) was 1 µg/mL (≈ 2.16 µM) and the MIC (Staph. aureus Oxford; [16]) was 2.5 µg/mL (≈ 5.39 µM). The MIC [5] was 1 µg/mL (≈ 2.16 µM), the MIC [6] was 25 µg/mL (≈ 53.9 µM) and the MIC [7, 17] was 1 µg/mL (≈ 2.16 µM). The MIC (Staph. aureus W2827; W2827, 18 h) was 5 µg/mL (≈ 10.8 µM), the MIC (P. mirabilis 889; [18]) was > 100 µg/mL and the MIC (K. aerogenes A; [19]) was > 100 µg/mL. The MIC [8] was 0.1 µg/mL (≈ 0.216 µM), the MIC [9] was 0.25 µg/mL (≈ 0.539 µM) and the MIC (M. suipneumoniae HR(2)) was 0.25 µg/mL (≈ 0.539 µM). It also gave an MIC (M. suipneumoniae MS 16) of 0.1 µg/mL (≈ 0.216 µM).
With `C/C(=C\C(=O)OCc1cccc([N+](=O)[O-])c1C)CC1OCC(CC2OC2C(C)C(C)O)C(O)C1O` (centres unmarked) [Example 8, 2-methyl-3-nitrobenzyl monate A] the MIC (M. suipneumoniae OCD 1; M. suipneumoniae OCD 1, in vitro, 6 days 37° C., read-out: MIC) was 0.25 µg/mL (≈ 0.507 µM), the MIC (M. suipneumoniae NB12) was 0.1 µg/mL (≈ 0.203 µM) and the MIC (M. hyorhinis ATCC 25021) was 0.1 µg/mL (≈ 0.203 µM). The MIC (M. suipneumoniae Str. 11) was 0.1 µg/mL (≈ 0.203 µM), the MIC [1] was 0.1 µg/mL (≈ 0.203 µM) and the MIC [2, 10] was > 100 µg/mL. For the same molecule, the MIC (Sarcina lutea 8340; [11]) was > 100 µg/mL, the MIC [3] was 0.25 µg/mL (≈ 0.507 µM) and the MIC (E. coli ESS; 18 h) was 1 µg/mL (≈ 2.03 µM). The MIC (E. Coli NCTC 10418; [12]) was > 100 µg/mL, the MIC [4, 13] was > 100 µg/mL and the MIC (Staph. aureus Russell; [14]) was 2.5 µg/mL (≈ 5.07 µM). The MIC (Strep. faecalis 1) was 50 µg/mL (≈ 101 µM), the MIC (Bacillus subtilis 6633; [15]) was 0.25 µg/mL (≈ 0.507 µM) and the MIC (Staph. aureus Oxford; [16]) was 2.5 µg/mL (≈ 5.07 µM). It also gave an MIC [5] of 0.5 µg/mL (≈ 1.01 µM), an MIC [6] of 2.5 µg/mL (≈ 5.07 µM) and an MIC [7, 17] of 0.25 µg/mL (≈ 0.507 µM). For the same molecule, the MIC (Staph. aureus W2827; Staph. aureus W2827, nutrient agar 5% chocolated horse blood, 18 hours 37° C., read-out: MIC) was 2.5 µg/mL (≈ 5.07 µM), the MIC (P. mirabilis 889; [18]) was > 100 µg/mL and the MIC (K. aerogenes A; [19]) was > 100 µg/mL. It also gave an MIC (Strep. pneumoniae CN33) of 0.5 µg/mL (≈ 1.01 µM), an MIC [8] of 0.1 µg/mL (≈ 0.203 µM) and an MIC ([9]; M. hyosynoviae ATOC 25591, in vitro, 6 days 37° C., read-out: MIC) of 0.05 µg/mL (≈ 0.101 µM). The MIC (M. suipneumoniae HR(2)) was 0.1 µg/mL (≈ 0.203 µM) and the MIC (M. suipneumoniae MS 16) was 0.1 µg/mL (≈ 0.203 µM).
With `C/C(=C\C(=O)OCc1ccc([N+](=O)[O-])cc1Cl)CC1OCC(CC2OC2C(C)C(C)O)C(O)C1O` (centres unmarked) [Example 11, 2-chloro-4-nitrobenzyl monate A] the MIC (M. suipneumoniae OCD 1) was 2.5 µg/mL (≈ 4.86 µM), the MIC (M. suipneumoniae NB12) was 1 µg/mL (≈ 1.95 µM) and the MIC (M. hyorhinis ATCC 25021) was 0.5 µg/mL (≈ 0.973 µM). It also gave an MIC (M. suipneumoniae Str. 11) of 1 µg/mL (≈ 1.95 µM), an MIC [1] of 1 µg/mL (≈ 1.95 µM) and an MIC (M. pneumoniae ATCC 15492) of 2.5 µg/mL (≈ 4.86 µM). The MIC ([2]; NCTC10662, 18 h) was > 100 µg/mL, the MIC (Sarcina lutea 8340; Micrococcus luteus, 8340, 18 h) was > 100 µg/mL and the MIC [3] was 1 µg/mL (≈ 1.95 µM). The MIC (E. Coli NCTC 10418; NCTC10418, 18 h) was > 100 µg/mL, the MIC ([4]; Corynebacterium xerosis, 9755, 18 h) was > 100 µg/mL and the MIC (Strep. 2733-B) was 1 µg/mL (≈ 1.95 µM). The MIC (Staph. aureus Russell; 18 h) was 1 µg/mL (≈ 1.95 µM), the MIC (Strep. faecalis 1) was 50 µg/mL (≈ 97.3 µM) and the MIC (Bacillus subtilis 6633; Bacillus subtilis, 6633, 18 h) was 0.5 µg/mL (≈ 0.973 µM). For the same molecule, the MIC (Staph. aureus Oxford; 18 h) was 1 µg/mL (≈ 1.95 µM), the MIC [5] was 2.5 µg/mL (≈ 4.86 µM) and the MIC [6] was 5 µg/mL (≈ 9.73 µM). For the same molecule, the MIC ([7]; Neisseria, 1502, 18 h) was 0.5 µg/mL (≈ 0.973 µM), the MIC (Staph. aureus W2827; W2827, 18 h) was 1 µg/mL (≈ 1.95 µM) and the MIC (P. mirabilis 889; Proteus mirabilis, 889, 18 h) was > 100 µg/mL. The MIC (K. aerogenes A; 18 h) was > 100 µg/mL, the MIC [8] was 1 µg/mL (≈ 1.95 µM) and the MIC [9] was 0.1 µg/mL (≈ 0.195 µM). The MIC (M. suipneumoniae HR(2)) was 2.5 µg/mL (≈ 4.86 µM) and the MIC (M. suipneumoniae MS 16) was 1 µg/mL (≈ 1.95 µM).
